# Experimental data: patent US20260022142A1, “MACROCYCLIC IMMUNOMODULATORS” (Bristol-Myers Squibb Company, priority 2022, published 2026)
# pIC50: −log10 of the molar value. Bridge positions count the residues as written; N and C are the ends. Square brackets hold non-standard residues; d marks the D form. Peptide text beside a SMILES is read from it. * marks the point of attachment. ξ: configuration not given here. Phe(3-CF3) = N[C@@H](Cc1cccc(C(F)(F)F)c1)C(=O)O; Phe(4-COOH) = N[C@@H](Cc1ccc(C(=O)O)cc1)C(=O)O; Bip = N[C@@H](Cc1ccc(-c2ccccc2)cc1)C(=O)O; NH(CH2)14COOH = O=C(O)CCCCCCCCCCCCCCN*; Phe(3-Me) = Cc1cccc(C[C@H](N)C(=O)O)c1; Val(3-OH) = CC(C)(O)[C@H](N)C(=O)O; hArg = N=C(N)NCCCC[C@H](N)C(=O)O; 4Pal = N[C@@H](Cc1ccncc1)C(=O)O; Cha = N[C@@H](CC1CCCCC1)C(=O)O; Cit = NC(=O)NCCC[C@H](N)C(=O)O; Thr(3ξ) = CC(O)[C@H](N)C(=O)O; 12Ado = NCCCCCCCCCCCC(=O)O; Carboxymethyl = O=C(O)C*; Orn = NCCC[C@H](N)C(=O)O; Aun = NCCCCCCCCCCC(=O)O; Dab = NCC[C@H](N)C(=O)O; Dap = NC[C@H](N)C(=O)O; AEEA = NCCOCCOCC(=O)O
# Molecular target: T1, PD-1/PD-L1 interaction (PE-labeled human PD-L1-Ig binding to Jurkat cell line over-expressing human PD-1) (Homo sapiens, UniProt Q15116)
# T1 construct: expressed in transfected cells; host or cells: Jurkat
# Assay: Jurkat-PD-1 Cell Binding High-Content Screening Assay (CBA)
# Type: cell-based
# Details: Jurkat cell line over-expressing human PD-1; PE-labeled PD-L1-Ig 20 nM final; read-out: Jurkat hPD1-PDL1 IC50
# Outline: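 Binding of fluorescent PD-L1-Ig (20 nM final) to Jurkat-PD-1 cells was measured by automated imaging after 1 h, following a 2 h compound pre-treatment at 37° C.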
# T1 sequence (Q15116 25-288): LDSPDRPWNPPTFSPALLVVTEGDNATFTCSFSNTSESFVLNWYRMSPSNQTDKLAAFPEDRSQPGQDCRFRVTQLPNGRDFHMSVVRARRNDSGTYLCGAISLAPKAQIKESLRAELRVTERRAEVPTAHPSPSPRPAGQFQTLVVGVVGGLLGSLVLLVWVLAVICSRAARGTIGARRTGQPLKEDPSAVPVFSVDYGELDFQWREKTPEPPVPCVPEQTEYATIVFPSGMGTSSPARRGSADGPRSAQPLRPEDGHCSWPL
row,pIC50,SMILES
1,7.21,CC(C)C[C@H]1NC(=O)[C@H](CCCN)NC(=O)[C@H](Cc2ccc(O)cc2)NC(=O)[C@H](Cc2ccc(-c3ccccc3)cc2)NC(=O)[C@H](C(C)C)NC(=O)[C@H](Cc2c[nH]c3ccccc23)NC(=O)[C@H](CC(=O)O)NC(=O)[C@H](Cc2ccc(OCC(=O)O)cc2)NC(=O)[C@H](CN)NC(=O)CSC[C@@H](C(=O)N[C@@H](CCN)C(=O)NCCCCCCCCCCC(=O)O)NC(=O)[C@H](CCCCN)NC(=O)[C@H](C(C)O)NC(=O)[C@H](CC2CCCCC2)NC(=O)[C@H](CCN)NC1=O (stereo partly drawn) [Compound 3655] ({CH2CO}-[Dap]Y(Carboxymethyl)DWV[Bip]Y[Orn][dL][Dab][Cha][Thr(3ξ)]KC[Dab][Aun]-OH; thioether N-14)
2,6.69,Cc1cccc(C[C@@H]2NC(=O)[C@H](CC(=O)O)NC(=O)[C@H](Cc3ccc(OCC(=O)O)cc3)NC(=O)[C@H](Cc3ccncc3)NC(=O)CSC[C@@H](C(=O)N[C@@H](CCN)C(=O)NCCCCCCCCCCCCCCC(=O)O)NC(=O)[C@H](CO)NC(=O)[C@H](C(C)(C)O)NC(=O)[C@H](CC3CCCCC3)NC(=O)[C@H](CCN)NC(=O)[C@@H](CC(C)C)NC(=O)[C@H](CCCN)NC(=O)[C@H](Cc3ccc(OCC(=O)O)cc3)NC(=O)[C@H](Cc3ccc(-c4ccccc4)cc3)NC(=O)[C@H](Cc3ccc(OCC(=O)O)cc3)NC2=O)c1 [Compound 2227] ({CH2CO}-[4Pal]Y(Carboxymethyl)D[Phe(3-Me)]Y(Carboxymethyl)[Bip]Y(Carboxymethyl)[Orn][dL][Dab][Cha][Val(3-OH)]SC[Dab]-{NH(CH2)14COOH}; thioether N-14)
3,8.22,Cc1cccc(C[C@@H]2NC(=O)[C@H](CC(=O)O)NC(=O)[C@H](Cc3ccc(OCC(=O)O)cc3)NC(=O)[C@H](CN)NC(=O)CSC[C@@H](C(=O)N[C@@H](C)C(=O)N[C@@H](CC(=O)O)C(=O)NCCOCCOCC(=O)N[C@@H](CCC(=O)O)C(=O)NCCOCCOCC(=O)NCCCCCCCCCCC(=O)O)NC(=O)[C@H]([C@@H](C)O)NC(=O)[C@H](C(C)C)NC(=O)[C@H](CC3CCCCC3)NC(=O)[C@H](CCN)NC(=O)[C@@H](CC(C)C)NC(=O)[C@H](CCCN)NC(=O)[C@H](CCCNC(N)=O)NC(=O)[C@H](Cc3ccc(-c4ccccc4)cc3)NC(=O)[C@H](C(C)C)NC2=O)c1 [Compound 1016] ({CH2CO}-[Dap]Y(Carboxymethyl)D[Phe(3-Me)]V[Bip][Cit][Orn][dL][Dab][Cha]VTCAD[AEEA]E[AEEA][Aun]-OH; thioether N-14)
4,7.59,Cc1cccc(C[C@@H]2NC(=O)[C@H](CC(=O)O)NC(=O)[C@H](Cc3ccc(OCC(=O)O)cc3)NC(=O)[C@H](CCCNC(N)=O)NC(=O)CSC[C@@H](C(=O)N[C@@H](CCN)C(=O)NCCCCCCCCCCC(=O)O)NC(=O)[C@H]([C@@H](C)O)NC(=O)[C@H](C(C)C)NC(=O)[C@H](CC3CCCCC3)NC(=O)[C@H](CCN)NC(=O)[C@@H](CC(C)C)NC(=O)[C@H](CCCN)NC(=O)[C@H](CCCNC(N)=O)NC(=O)[C@H](Cc3ccc(-c4ccccc4)cc3)NC(=O)[C@H](C(C)C)NC2=O)c1 [Compound 2824] ({CH2CO}-[Cit]Y(Carboxymethyl)D[Phe(3-Me)]V[Bip][Cit][Orn][dL][Dab][Cha]VTC[Dab][Aun]-OH; thioether N-14)
5,7.62,Cc1cccc(C[C@@H]2NC(=O)[C@H](CC(=O)O)NC(=O)[C@H](Cc3ccc(OCC(=O)O)cc3)NC(=O)[C@H](CCCCNC(=N)N)NC(=O)CSC[C@@H](C(=O)N[C@@H](CCCN)C(=O)N[C@@H](CO)C(=O)NCCCCCCCCCCCC(=O)O)NC(=O)[C@H](CO)NC(=O)[C@H](C(C)O)NC(=O)[C@H](CC3CCCCC3)NC(=O)[C@H](CCN)NC(=O)[C@@H](CC(C)C)NC(=O)[C@H](CCCN)NC(=O)[C@H](CCCNC(N)=O)NC(=O)[C@H](Cc3ccc(-c4ccccc4)cc3)NC(=O)[C@H](C(C)C)NC2=O)c1 (stereo partly drawn) [Compound 3591] ({CH2CO}-[hArg]Y(Carboxymethyl)D[Phe(3-Me)]V[Bip][Cit][Orn][dL][Dab][Cha][Thr(3ξ)]SC[Orn]S[12Ado]-OH; thioether N-14)
6,7.75,CC(C)C[C@H]1NC(=O)[C@H](CCCN)NC(=O)[C@H](C(C)C)NC(=O)[C@H](Cc2ccc(-c3ccccc3)cc2)NC(=O)[C@H](C(C)C)NC(=O)[C@H](Cc2c[nH]c3ccccc23)NC(=O)[C@H](CC(=O)O)NC(=O)[C@H](Cc2ccc(OCC(=O)O)cc2)NC(=O)[C@H](CCCCNC(=N)N)NC(=O)CSC[C@@H](C(=O)N[C@@H](CCN)C(=O)NCCOCCOCC(=O)NCCCCCCCCCCC(=O)O)NC(=O)[C@H](CCCCN)NC(=O)[C@H](C(C)C)NC(=O)[C@H](CC2CCCCC2)NC(=O)[C@H](CC(N)=O)NC1=O [Compound 3217] ({CH2CO}-[hArg]Y(Carboxymethyl)DWV[Bip]V[Orn][dL]N[Cha]VKC[Dab][AEEA][Aun]-OH; thioether N-14)
7,7.68,Cc1cccc(C[C@@H]2NC(=O)[C@H](CC(=O)O)NC(=O)[C@H](Cc3ccc(OCC(=O)O)cc3)NC(=O)[C@H](C(C)O)NC(=O)CSC[C@@H](C(=O)NCCOCCOCC(=O)NCCCCCCCCCCC(=O)O)NC(=O)[C@H](C(C)O)NC(=O)[C@H](C(C)C)NC(=O)[C@H](CC3CCCCC3)NC(=O)[C@H](CCN)NC(=O)[C@@H](CC(C)C)NC(=O)[C@H](CCCN)NC(=O)[C@H](Cc3ccc(OCC(=O)O)cc3)NC(=O)[C@H](Cc3ccc(-c4ccccc4)cc3)NC(=O)[C@H](Cc3ccc(OCC(=O)O)cc3)NC2=O)c1 (stereo partly drawn) [Compound 3478] ({CH2CO}-[Thr(3ξ)]Y(Carboxymethyl)D[Phe(3-Me)]Y(Carboxymethyl)[Bip]Y(Carboxymethyl)[Orn][dL][Dab][Cha]V[Thr(3ξ)]C[AEEA][Aun]-OH; thioether N-14)
8,6.60,CC(C)C[C@H]1NC(=O)[C@H](CCCN)NC(=O)[C@H](Cc2ccc(C(=O)O)cc2)NC(=O)[C@H](Cc2ccc(-c3ccccc3)cc2)NC(=O)[C@H](Cc2ccc(C(=O)O)cc2)NC(=O)[C@H](Cc2cccc(C(F)(F)F)c2)NC(=O)[C@H](CC(=O)O)NC(=O)[C@H](Cc2ccc(OCC(=O)O)cc2)NC(=O)[C@H](Cc2ccc(OCC(=O)O)cc2)NC(=O)CSC[C@@H](C(=O)N[C@@H](CCN)C(=O)NCCCCCCCCCCCCCCC(=O)O)NC(=O)[C@H](CCC(=O)O)NC(=O)[C@H](C(C)C)NC(=O)[C@H](CC2CCCCC2)NC(=O)[C@H](CCN)NC1=O [Compound 3849] ({CH2CO}-Y(Carboxymethyl)Y(Carboxymethyl)D[Phe(3-CF3)][Phe(4-COOH)][Bip][Phe(4-COOH)][Orn][dL][Dab][Cha]VEC[Dab]-{NH(CH2)14COOH}; thioether N-14)
9,6.64,Cc1cccc(C[C@@H]2NC(=O)[C@H](CC(=O)O)NC(=O)[C@H](Cc3ccc(OCC(=O)O)cc3)NC(=O)[C@H](Cc3ccncc3)NC(=O)CSC[C@@H](C(=O)N[C@@H](CCN)C(=O)NCCOCCOCC(=O)NCCCCCCCCCCC(=O)O)NC(=O)[C@H](CO)NC(=O)[C@H](C(C)(C)O)NC(=O)[C@H](CC3CCCCC3)NC(=O)[C@H](CCN)NC(=O)[C@@H](CC(C)C)NC(=O)[C@H](CCCN)NC(=O)[C@H](Cc3ccc(C(=O)O)cc3)NC(=O)[C@H](Cc3ccc(-c4ccccc4)cc3)NC(=O)[C@H](Cc3ccc(C(=O)O)cc3)NC2=O)c1 [Compound 2862] ({CH2CO}-[4Pal]Y(Carboxymethyl)D[Phe(3-Me)][Phe(4-COOH)][Bip][Phe(4-COOH)][Orn][dL][Dab][Cha][Val(3-OH)]SC[Dab][AEEA][Aun]-OH; thioether N-14)
10,7.58,Cc1cccc(C[C@@H]2NC(=O)[C@H](CC(=O)O)NC(=O)[C@H](Cc3ccc(OCC(=O)O)cc3)NC(=O)[C@H](CCCCNC(=N)N)NC(=O)CSC[C@@H](C(=O)NCC(=O)NCCOCCOCC(=O)N[C@@H](CCN)C(=O)NCCCCCCCCCCC(=O)O)NC(=O)[C@H](CCCN)NC(=O)[C@H](C(C)C)NC(=O)[C@H](CC3CCCCC3)NC(=O)[C@H](CCN)NC(=O)[C@@H](CC(C)C)NC(=O)[C@H](CCCN)NC(=O)[C@H](C(C)C)NC(=O)[C@H](Cc3ccc(-c4ccccc4)cc3)NC(=O)[C@H](C(C)C)NC2=O)c1 [Compound 3246] ({CH2CO}-[hArg]Y(Carboxymethyl)D[Phe(3-Me)]V[Bip]V[Orn][dL][Dab][Cha]V[Orn]CG[AEEA][Dab][Aun]-OH; thioether N-14)
11,7.77,Cc1cccc(C[C@@H]2NC(=O)[C@H](CC(=O)O)NC(=O)[C@H](Cc3ccc(OCC(=O)O)cc3)NC(=O)[C@H](C(C)O)NC(=O)CSC[C@@H](C(=O)N[C@@H](CC(N)=O)C(=O)NCCCCCCCCCCC(=O)O)NC(=O)[C@H](C(C)O)NC(=O)[C@H](C(C)C)NC(=O)[C@H](CC3CCCCC3)NC(=O)[C@H](CCN)NC(=O)[C@@H](CC(C)C)NC(=O)[C@H](CCCN)NC(=O)[C@H](Cc3ccc(O)cc3)NC(=O)[C@H](Cc3ccc(-c4ccccc4)cc3)NC(=O)[C@H](C(C)C)NC2=O)c1 (stereo partly drawn) [Compound 3427] ({CH2CO}-[Thr(3ξ)]Y(Carboxymethyl)D[Phe(3-Me)]V[Bip]Y[Orn][dL][Dab][Cha]V[Thr(3ξ)]CN[Aun]-OH; thioether N-14)
12,6.46,Cc1cccc(C[C@@H]2NC(=O)[C@H](CC(=O)O)NC(=O)[C@H](Cc3ccc(OCC(=O)O)cc3)NC(=O)[C@H](CCCNC(=N)N)NC(=O)CSC[C@@H](C(=O)N[C@H](CC(N)=O)C(=O)NCCCCCCCCCCC(=O)O)NC(=O)[C@H](C(C)O)NC(=O)[C@H](CO)NC(=O)[C@H](CC3CCCCC3)NC(=O)[C@H](CCN)NC(=O)[C@@H](CC(C)C)NC(=O)[C@H](CCCN)NC(=O)[C@H](Cc3ccc(OCC(=O)O)cc3)NC(=O)[C@H](Cc3ccc(-c4ccccc4)cc3)NC(=O)[C@H](Cc3c[nH]c4ccccc34)NC2=O)c1 (stereo partly drawn) [Compound 3525] ({CH2CO}-RY(Carboxymethyl)D[Phe(3-Me)]W[Bip]Y(Carboxymethyl)[Orn][dL][Dab][Cha]S[Thr(3ξ)]C[dN][Aun]-OH; thioether N-14)
